Source: patent US11084826B2, “RSV antiviral pyrazolo- and triazolo-pyrimidine compounds” (Janssen Sciences Ireland Unlimited Company, priority 2015, dated 2021)

Key:
[1] = Cytotoxicity in HeLa cells, ATP content measured with the ATPlite kit; format: cell-based; conditions: human, TOX HELA pCC50
HeLa cells = assay: as above; format: cell-based; conditions: human, 3 days
rgRSV224 virus = assay: Antiviral activity: inhibition of rgRSV224 (GFP-expressing RSV) replication in HeLa cells, GFP expression read-out; format: cell-based, respiratory syncytial virus (RSV)
Summary of the method: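 EC50 is the 50% inhibitory concentration for GFP expression, read by laser microscopy three days after rgRSV224 infection (MOI=1) of HeLa cells (3,000/well). Compounds were tested as 9 serial 4-fold dilutions at 0.05% DMSO, and cells were incubated at 37° C under 5% CO2.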

Structure (SMILES): CCc1cc(C(=O)N2CCCCC[C@H]2C)nc2cc(-c3ccc(-n4cc(C(=O)O)cn4)cc3F)nn12 [Compound W2]
- CC50 at 3 days [1]: > 25.1 µM
- TOX HELA pCC50 (HeLa cells): 4.31

Structure (SMILES): C[C@@H]1CCCCCN1C(=O)c1cc(C2CCC2)n2nc(-c3ccc(/C=C/C(=O)O)cc3F)cc2n1 [Compound M19]
- EC50 (rgRSV224 virus; human respiratory syncytial virus, HeLa, read-out: RSV HELA pEC50, rgRSV224 virus (MOI=1) in HeLa cells, GFP read-out (converted)): 0.0302 µM
- RSV HELA pEC50 (rgRSV224 virus; rgRSV224 virus (MOI=1) in HeLa cells, GFP read-out): 7.72
- CC50 at 3 days [1]: 38.9 µM
- TOX HELA pCC50 (HeLa cells): 4.49
